The supplement of paper PMC10307832

Compound: COc1cccc2c1C(=O)c1c(O)c3c(c(O)c1C2=O)C[C@@](O)(C(=O)CO)C[C@@H]3O[C@H]1C[C@H](N)[C@H](O)[C@H](C)O1 [Doxorubicin] + Cc1nc(Nc2ncc(C(=O)Nc3c(C)cccc3Cl)s2)cc(N2CCN(CCO)CC2)n1 [Dasatinib] (partner 0.075 µM)
Assay: relative viability (nuclei count vs DMSO), 5 days (fraction); higher = more cells survive
Settings: first compound 0.001 µM
Procedure, shortened: (§1)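 Each reported value is a median over duplicate plates. It expresses relative viability: treated-well nuclei count divided by vehicle-well nuclei count. Lung cancer cell lines in 1536-well plates were dosed by pin tool a day after seeding, alone with one drug or with a fixed anchor-drug dose plus five library-drug doses (not always all listed) in √10 steps, and nuclei were counted after 5 days.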

Q: ChaGo-K-1 was tested. Which relative viability did it give?
A: 0.633

Q: With NCI-H322M as the cell line, how does the relative viability read?
A: 0.29

Q: With HCC-78 as the cell line, how does the relative viability read?
A: 0.412

Q: LXF-289 was tested. Which relative viability did it give?
A: 0.224

Q: Which relative viability does the source give for BEN here?
A: 0.366

Q: HARA was tested. Which relative viability did it give?
A: 0.26

Q: Which relative viability does the source give for HCC-827 here?
A: 0.3

Q: NCI-H520 was tested. Which relative viability did it give?
A: 0.234

Q: How did the relative viability turn out when LOU-NH91 was run?
A: 0.488

Q: NCI-H2023 was tested. Which relative viability did it give?
A: 0.672

Q: With A-427 as the cell line, how does the relative viability read?
A: 0.745

Q: For NCI-H647, which relative viability is on record?
A: 0.186

Q: For PC-3 [JPC-3], which relative viability is on record?
A: 1.02

Q: Which relative viability does the source give for NCI-H1755 here?
A: 0.444

Q: Which relative viability does the source give for NCI-H650 here?
A: 0.432

Same assay, conditions: first compound 0.003162 µM

Q: Which relative viability does the source give for ChaGo-K-1 here?
A: 0.62

Q: How did the relative viability turn out when NCI-H322M was run?
A: 0.237

Q: For HCC-78, which relative viability is on record?
A: 0.465

Q: With LXF-289 as the cell line, how does the relative viability read?
A: 0.293

Q: For BEN, which relative viability is on record?
A: 0.296

Q: How did the relative viability turn out when HARA was run?
A: 0.344

Q: Which relative viability does the source give for HCC-827 here?
A: 0.335

Q: How did the relative viability turn out when NCI-H520 was run?
A: 0.218

Q: Which relative viability does the source give for LOU-NH91 here?
A: 0.646

Q: How did the relative viability turn out when NCI-H2023 was run?
A: 0.588

Q: How did the relative viability turn out when A-427 was run?
A: 0.743

Q: Which relative viability does the source give for NCI-H647 here?
A: 0.212

Q: For PC-3 [JPC-3], which relative viability is on record?
A: 0.975

Q: How did the relative viability turn out when NCI-H1755 was run?
A: 0.288

Q: How did the relative viability turn out when NCI-H650 was run?
A: 0.473

Same assay, conditions: first compound 0.01 µM

Q: With ChaGo-K-1 as the cell line, how does the relative viability read?
A: 0.56

Q: With NCI-H322M as the cell line, how does the relative viability read?
A: 0.27

Q: HCC-78 was tested. Which relative viability did it give?
A: 0.366

Q: LXF-289 was tested. Which relative viability did it give?
A: 0.241

Q: BEN was tested. Which relative viability did it give?
A: 0.329

Q: For HARA, which relative viability is on record?
A: 0.296

Q: With HCC-827 as the cell line, how does the relative viability read?
A: 0.29

Q: Which relative viability does the source give for NCI-H520 here?
A: 0.202

Q: With LOU-NH91 as the cell line, how does the relative viability read?
A: 0.529

Q: For NCI-H2023, which relative viability is on record?
A: 0.431

Q: How did the relative viability turn out when A-427 was run?
A: 0.621

Q: How did the relative viability turn out when NCI-H647 was run?
A: 0.166

Q: How did the relative viability turn out when PC-3 [JPC-3] was run?
A: 0.935

Q: NCI-H1755 was tested. Which relative viability did it give?
A: 0.437

Q: With NCI-H650 as the cell line, how does the relative viability read?
A: 0.503

Same assay, conditions: first compound 0.03162 µM

Q: How did the relative viability turn out when ChaGo-K-1 was run?
A: 0.479

Q: NCI-H322M was tested. Which relative viability did it give?
A: 0.275

Q: How did the relative viability turn out when HCC-78 was run?
A: 0.349

Q: For LXF-289, which relative viability is on record?
A: 0.238

Q: BEN was tested. Which relative viability did it give?
A: 0.294

Q: With HARA as the cell line, how does the relative viability read?
A: 0.261

Q: Which relative viability does the source give for HCC-827 here?
A: 0.304

Q: With NCI-H520 as the cell line, how does the relative viability read?
A: 0.151

Q: LOU-NH91 was tested. Which relative viability did it give?
A: 0.531

Q: For NCI-H2023, which relative viability is on record?
A: 0.173

Q: Which relative viability does the source give for A-427 here?
A: 0.721

Q: Which relative viability does the source give for NCI-H647 here?
A: 0.152

Q: Which relative viability does the source give for PC-3 [JPC-3] here?
A: 0.946

Q: NCI-H1755 was tested. Which relative viability did it give?
A: 0.434

Q: Which relative viability does the source give for NCI-H650 here?
A: 0.461

Same assay, conditions: first compound 0.1 µM

Q: Which relative viability does the source give for ChaGo-K-1 here?
A: 0.543

Q: How did the relative viability turn out when NCI-H322M was run?
A: 0.272

Q: For HCC-78, which relative viability is on record?
A: 0.363

Q: Which relative viability does the source give for LXF-289 here?
A: 0.281

Q: With BEN as the cell line, how does the relative viability read?
A: 0.418

Q: HARA was tested. Which relative viability did it give?
A: 0.23

Q: How did the relative viability turn out when HCC-827 was run?
A: 0.365

Q: With NCI-H520 as the cell line, how does the relative viability read?
A: 0.183

Q: For LOU-NH91, which relative viability is on record?
A: 0.474

Q: Which relative viability does the source give for NCI-H2023 here?
A: 0.0859

Q: With A-427 as the cell line, how does the relative viability read?
A: 0.673

Q: For NCI-H647, which relative viability is on record?
A: 0.0503

Q: For PC-3 [JPC-3], which relative viability is on record?
A: 0.97

Q: For NCI-H1755, which relative viability is on record?
A: 0.554

Q: For NCI-H650, which relative viability is on record?
A: 0.355

Compound: COc1cccc2c1C(=O)c1c(O)c3c(c(O)c1C2=O)C[C@@](O)(C(=O)CO)C[C@@H]3O[C@H]1C[C@H](N)[C@H](O)[C@H](C)O1 [Doxorubicin] + CC(C)C[C@H](NC(=O)[C@H](Cc1ccccc1)NC(=O)c1cnccn1)B(O)O [Bortezomib] (partner 0.002 µM)
Assay: as above
Settings: first compound 0.001 µM
Procedure, shortened: as §1

Q: ChaGo-K-1 was tested. Which relative viability did it give?
A: 1.16

Q: For NCI-H322M, which relative viability is on record?
A: 1.45

Q: With HCC-78 as the cell line, how does the relative viability read?
A: 0.322

Q: With LXF-289 as the cell line, how does the relative viability read?
A: 1.01

Q: For BEN, which relative viability is on record?
A: 1.01

Q: For HARA, which relative viability is on record?
A: 1.1

Q: With HCC-827 as the cell line, how does the relative viability read?
A: 1.05

Q: Which relative viability does the source give for NCI-H520 here?
A: 0.575

Q: How did the relative viability turn out when LOU-NH91 was run?
A: 0.493

Q: How did the relative viability turn out when NCI-H2023 was run?
A: 0.456

Q: How did the relative viability turn out when A-427 was run?
A: 1.03

Q: Which relative viability does the source give for NCI-H647 here?
A: 1.03

Q: For PC-3 [JPC-3], which relative viability is on record?
A: 0.81

Q: Which relative viability does the source give for NCI-H1755 here?
A: 0.99

Q: For NCI-H650, which relative viability is on record?
A: 0.862

Same assay, conditions: first compound 0.003162 µM

Q: ChaGo-K-1 was tested. Which relative viability did it give?
A: 0.832

Q: How did the relative viability turn out when NCI-H322M was run?
A: 1.21

Q: With HCC-78 as the cell line, how does the relative viability read?
A: 0.532

Q: With LXF-289 as the cell line, how does the relative viability read?
A: 1.02

Q: With BEN as the cell line, how does the relative viability read?
A: 1.05

Q: HARA was tested. Which relative viability did it give?
A: 0.993

Q: HCC-827 was tested. Which relative viability did it give?
A: 1.03

Q: Which relative viability does the source give for NCI-H520 here?
A: 0.581

Q: How did the relative viability turn out when LOU-NH91 was run?
A: 0.477

Q: With NCI-H2023 as the cell line, how does the relative viability read?
A: 0.889

Q: A-427 was tested. Which relative viability did it give?
A: 1.06

Q: For NCI-H647, which relative viability is on record?
A: 1.04

Q: PC-3 [JPC-3] was tested. Which relative viability did it give?
A: 0.926

Q: Which relative viability does the source give for NCI-H1755 here?
A: 0.947

Q: How did the relative viability turn out when NCI-H650 was run?
A: 0.688

Same assay, conditions: first compound 0.01 µM

Q: ChaGo-K-1 was tested. Which relative viability did it give?
A: 0.948

Q: How did the relative viability turn out when NCI-H322M was run?
A: 1.28

Q: With HCC-78 as the cell line, how does the relative viability read?
A: 0.419

Q: Which relative viability does the source give for LXF-289 here?
A: 0.998

Q: With BEN as the cell line, how does the relative viability read?
A: 0.821

Q: Which relative viability does the source give for HARA here?
A: 1.11

Q: HCC-827 was tested. Which relative viability did it give?
A: 1.07

Q: With NCI-H520 as the cell line, how does the relative viability read?
A: 0.46

Q: LOU-NH91 was tested. Which relative viability did it give?
A: 0.479

Q: How did the relative viability turn out when NCI-H2023 was run?
A: 0.69

Q: With A-427 as the cell line, how does the relative viability read?
A: 0.966

Q: NCI-H647 was tested. Which relative viability did it give?
A: 0.907

Q: For PC-3 [JPC-3], which relative viability is on record?
A: 0.863

Q: How did the relative viability turn out when NCI-H1755 was run?
A: 0.985

Q: For NCI-H650, which relative viability is on record?
A: 0.914

Same assay, conditions: first compound 0.03162 µM

Q: With ChaGo-K-1 as the cell line, how does the relative viability read?
A: 0.47

Q: With NCI-H322M as the cell line, how does the relative viability read?
A: 1.27

Q: HCC-78 was tested. Which relative viability did it give?
A: 0.392

Q: Which relative viability does the source give for LXF-289 here?
A: 0.996

Q: Which relative viability does the source give for BEN here?
A: 0.632

Q: How did the relative viability turn out when HARA was run?
A: 1.08

Q: Which relative viability does the source give for HCC-827 here?
A: 1.01

Q: Which relative viability does the source give for NCI-H520 here?
A: 0.361

Q: With LOU-NH91 as the cell line, how does the relative viability read?
A: 0.487

Q: NCI-H2023 was tested. Which relative viability did it give?
A: 0.152

Q: A-427 was tested. Which relative viability did it give?
A: 0.942

Q: With NCI-H647 as the cell line, how does the relative viability read?
A: 0.213

Q: For PC-3 [JPC-3], which relative viability is on record?
A: 0.79

Q: NCI-H1755 was tested. Which relative viability did it give?
A: 0.981

Q: Which relative viability does the source give for NCI-H650 here?
A: 0.697

Same assay, conditions: first compound 0.1 µM

Q: For ChaGo-K-1, which relative viability is on record?
A: 0.319

Q: With NCI-H322M as the cell line, how does the relative viability read?
A: 1.18

Q: HCC-78 was tested. Which relative viability did it give?
A: 0.562

Q: For LXF-289, which relative viability is on record?
A: 0.926

Q: How did the relative viability turn out when BEN was run?
A: 0.74

Q: Which relative viability does the source give for HARA here?
A: 1

Q: HCC-827 was tested. Which relative viability did it give?
A: 0.956

Q: How did the relative viability turn out when NCI-H520 was run?
A: 0.269

Q: For LOU-NH91, which relative viability is on record?
A: 0.407

Q: For NCI-H2023, which relative viability is on record?
A: 0.0962

Q: How did the relative viability turn out when A-427 was run?
A: 0.991

Q: For NCI-H647, which relative viability is on record?
A: 0.111

Q: Which relative viability does the source give for PC-3 [JPC-3] here?
A: 0.8

Q: For NCI-H1755, which relative viability is on record?
A: 0.969

Q: With NCI-H650 as the cell line, how does the relative viability read?
A: 0.511
